Assay results from patent publication US11655235B2, “Pyrrolidine and piperidine compounds” (YUHAN CORPORATION, priority 2019, dated 2023).

What was measured:
DPP4 = DPP4 (Homo sapiens, UniProt P27487); assay: DPP4 inhibition, fluorogenic substrate H-Gly-Pro-AMC; assay type: biochemical; parameters: purchased R&D Systems; details: for inhibition at 1 µM: read-out: hDPP4 inhibition % at 1 μM
Protocol: The compounds according to the present technology were evaluated in terms of the inhibitory effect on the activity of dipeptidyl peptidases including FAP by using a substrate producing fluorescent substances upon enzymatic decomposition. The test was conducted at 25° C. to get a final reaction volume of 100 μL in a 96 black well plate. […] Briefly, the test compounds were dissolved in dimethyl sulfoxide (DMSO) at a concentration of 20 mM and then subjected to serial dilution, thereby creating an 8 point curve. As for the control group, a 6 point curve created by serial dilution of Talabostat in the same buffer solution was used. Fluorescence intensity was measured using a microplate reader (Flexstation3, Molecular Devices) under the wavelength condition exciting at 380 nm and reading the emission at 460 nm. The inhibitory effect of the test compounds was measured as a decrease (%) in the signal rate as compared to the control group without any inhibitor. Data was fixed to a logistic model with four variables and IC50 value was calculated using GraphPad Prism program. As for recombinant human DPP4 (R&D Systems), 25 mM tris (pH 8.0) buffer as a buffer solution and H-Gly-Pro-AMC (Bachem) as a substrate were used. As for recombinant human DPP7 (R&D Systems), 25 mM MES (pH 6.0) buffer as a buffer solution and Lys-Pro-AMC (Bachem) as a substrate were used. As for recombinant human DPP8 (PBS Bioscience), as a buffer solution, a 10 mM tris (pH 7.4) buffer comprising 10 mM of magnesium chloride and 0.05% of Tween 20, and Z-Ala-Pro-AMC (BPS Bioscience) as a substrate were used. As for recombinant human DPP9 (R&D Systems), a 25 mM tris (pH 8.0) buffer as a buffer solution and H-Gly-Pro-AMC (Bachem) as a substrate were used. As for recombinant human PREP (R&D System), as a buffer solution, a 25 mM tris (pH 7.5) buffer comprising 250 mM sodium chloride and 2.5 mM DTT (Dithiolthreitol), and Z-Gly-Pro-AMC (Bachem) as a substrate were used. The evaluation was made by using 10 ng of DPP4, PDD7, and PREP, 20 ng of DPP8, and 50 ng of DPP9 based on the final reaction. In the evaluation of DPP4, the test compounds were subjected to serial dilution in a buffer under the condition containing up to 0.1% of DMSO. In the evaluation of DPP7, DPP8, DPP9, and PREP, the test compounds were subjected to serial dilution in each buffer under the condition containing up to 0.5% of DMSO.

Recombinant human FAP = biological target: T1, Recombinant human FAP (Homo sapiens, UniProt Q12884); assay: FAP inhibition, fluorogenic substrate Z-Gly-Pro-AMC; assay type: biochemical; details: for inhibition at 1 µM: read-out: hFAP inhibition % at 1 μM
T1 construct: purchased R&D systems
T1 sequence (Q12884 1-760): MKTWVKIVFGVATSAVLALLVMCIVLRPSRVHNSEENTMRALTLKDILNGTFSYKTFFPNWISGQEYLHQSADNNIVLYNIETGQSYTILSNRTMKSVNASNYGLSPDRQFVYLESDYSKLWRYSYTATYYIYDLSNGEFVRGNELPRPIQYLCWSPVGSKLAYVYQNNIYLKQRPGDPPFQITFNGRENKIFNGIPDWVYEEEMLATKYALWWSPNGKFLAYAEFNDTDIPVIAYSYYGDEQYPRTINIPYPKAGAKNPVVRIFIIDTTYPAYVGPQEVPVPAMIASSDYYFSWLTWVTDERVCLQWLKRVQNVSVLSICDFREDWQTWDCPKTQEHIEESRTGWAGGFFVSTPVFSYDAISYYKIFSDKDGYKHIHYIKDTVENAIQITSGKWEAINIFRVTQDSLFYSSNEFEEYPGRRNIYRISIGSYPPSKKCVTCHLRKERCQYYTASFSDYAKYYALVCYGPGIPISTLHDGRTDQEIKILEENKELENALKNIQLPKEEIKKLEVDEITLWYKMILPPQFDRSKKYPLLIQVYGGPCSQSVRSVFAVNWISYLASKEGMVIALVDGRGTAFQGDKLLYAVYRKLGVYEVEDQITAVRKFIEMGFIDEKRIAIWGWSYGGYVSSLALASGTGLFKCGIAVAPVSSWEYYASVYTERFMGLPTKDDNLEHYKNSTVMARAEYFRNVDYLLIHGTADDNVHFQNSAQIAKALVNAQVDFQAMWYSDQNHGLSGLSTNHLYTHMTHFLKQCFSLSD
Protocol: The compounds according to the present technology were evaluated in terms of the inhibitory effect on the activity of dipeptidyl peptidases including FAP by using a substrate producing fluorescent substances upon enzymatic decomposition. The test was conducted at 25° C. to get a final reaction volume of 100 μL in a 96 black well plate. […] Briefly, the test compounds were dissolved in dimethyl sulfoxide (DMSO) at a concentration of 20 mM and then subjected to serial dilution, thereby creating an 8 point curve. As for the control group, a 6 point curve created by serial dilution of Talabostat in the same buffer solution was used. Fluorescence intensity was measured using a microplate reader (Flexstation3, Molecular Devices) under the wavelength condition exciting at 380 nm and reading the emission at 460 nm. The inhibitory effect of the test compounds was measured as a decrease (%) in the signal rate as compared to the control group without any inhibitor. Data was fixed to a logistic model with four variables and IC50 value was calculated using GraphPad Prism program. Recombinant human FAP (R&D systems) was diluted with 50 mM tris (pH 7.5) buffer comprising 1 M of sodium chloride and 1 mg/ml of bovine serum albumin (BSA) to be 10 ng per final reaction. The test compounds were subjected to serial dilution in a buffer under the condition containing up to 0.1% of DMSO. Z-Gly-Pro-AMC (Bachem) was used as a substrate. By dissolving in DMSO and then diluting in the same buffer, the substrate was added to be […] per final reaction.

[1] = 25° C., Z-Gly-Pro-AMC substrate
[2] = recombinant human FAP, substrate Z-Gly-Pro-AMC

Chain of DPP4 (P27487 whole entry): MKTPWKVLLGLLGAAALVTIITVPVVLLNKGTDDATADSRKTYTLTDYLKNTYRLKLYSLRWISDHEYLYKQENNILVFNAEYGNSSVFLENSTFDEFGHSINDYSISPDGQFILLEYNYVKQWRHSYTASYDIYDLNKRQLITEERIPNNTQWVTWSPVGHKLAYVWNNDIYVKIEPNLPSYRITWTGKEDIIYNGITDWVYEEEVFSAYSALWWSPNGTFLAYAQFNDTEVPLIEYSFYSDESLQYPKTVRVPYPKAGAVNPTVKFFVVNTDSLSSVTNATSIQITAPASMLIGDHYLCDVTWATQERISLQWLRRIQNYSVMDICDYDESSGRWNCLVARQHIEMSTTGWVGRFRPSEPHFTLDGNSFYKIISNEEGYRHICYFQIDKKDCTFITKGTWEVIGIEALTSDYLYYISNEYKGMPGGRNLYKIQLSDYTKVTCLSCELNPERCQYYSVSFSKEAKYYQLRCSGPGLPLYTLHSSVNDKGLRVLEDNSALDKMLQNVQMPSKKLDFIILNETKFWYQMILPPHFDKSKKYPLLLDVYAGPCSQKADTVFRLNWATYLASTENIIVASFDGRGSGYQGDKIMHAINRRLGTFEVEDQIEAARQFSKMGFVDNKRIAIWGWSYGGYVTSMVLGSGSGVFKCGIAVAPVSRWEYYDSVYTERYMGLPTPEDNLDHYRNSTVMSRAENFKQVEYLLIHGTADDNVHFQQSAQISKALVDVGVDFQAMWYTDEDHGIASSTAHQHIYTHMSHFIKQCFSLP

inhibition at 1 µM (DPP4)	IC50 (Recombinant human FAP; [1])	Compound	other results
4.4%	163 nM	N#C[C@@H]1CCCN1C(=O)CN1CC[C@@H](C(=O)Nc2cnc3ccccc3c2)C1 [Example 1, (R)-1-(2-((S)-2-cyanopyrrolidin-1-yl)-2-oxoethyl)-N-(quinolin-3-yl)pyrrolidine-3-carboxamide]	–
14.6%	84.5 nM	N#C[C@@H]1CCCN1C(=O)CN1CC[C@@H](C(=O)Nc2ccnc3ccccc23)C1 [Example 2, (R)-1-(2-((S)-2-cyanopyrrolidin-1-yl)-2-oxoethyl)-N-(quinolin-4-yl)pyrrolidine-3-carboxamide]	–
4.2%	175 nM	N#C[C@@H]1CCCN1C(=O)CN1CC[C@H](C(=O)Nc2cnc3ccccc3c2)C1 [Example 3, (S)-1-(2-((S)-2-cyanopyrrolidin-1-yl)-2-oxoethyl)-N-(quinolin-3-yl)pyrrolidine-3-carboxamide]	–
15.1%	99.2 nM	N#C[C@@H]1CCCN1C(=O)CN1CC[C@H](C(=O)Nc2ccnc3ccccc23)C1 [Example 4, (S)-1-(2-((S)-2-cyanopyrrolidin-1-yl)-2-oxoethyl)-N-(quinolin-4-yl)pyrrolidine-3-carboxamide]	–
–	25.3 nM	N#C[C@@H]1CCCN1C(=O)CN1CC[C@@H](Nc2cccc(-c3ccccc3)c2)C1 [Example 18, (S)-1-(2-((R)-3-([1,1′-biphenyl]-3-ylamino)pyrrolidin-1-yl)acetyl)pyrrolidine-2-carbonitrile]	hDPP4 inhibition % at 1 μM (DPP4): No inhibition**
3.6%	34.1 nM	N#C[C@@H]1CCCN1C(=O)CN1CC[C@H](Nc2cccc3ccsc23)C1 [Example 21, (S)-1-(2-((S)-3-(benzo[b]thiophen-7-ylamino)pyrrolidin-1-yl)acetyl)pyrrolidine-2-carbonitrile]	–
4.2%	9.03 nM	N#C[C@@H]1CCCN1C(=O)CN1CC[C@H](Nc2cccc3ccoc23)C1 [Example 22, (S)-1-(2-((S)-3-(benzofuran-7-ylamino)pyrrolidin-1-yl)acetyl)pyrrolidine-2-carbonitrile]	–
2.9%	57.6 nM	N#C[C@@H]1CCCN1C(=O)CN1CC[C@@H](Nc2cccc3ccsc23)C1 [Example 25, (S)-1-(2-((R)-3-(benzo[b]thiophen-7-ylamino)pyrrolidin-1-yl)acetyl)pyrrolidine-2-carbonitrile]	–
0.4%	–	N#C[C@@H]1C[C@@H]2C[C@@H]2N1C(=O)CN1CC[C@H](Nc2cncc3ccoc23)C1 [Example 26, (1S,3S,5S)-2-(2-((S)-3-(furo[3,2-c]pyridin-7-ylamino)pyrrolidin-1-yl)acetyl)-2-azabicyclo[3.1.0]hexane-3-carbonitrile]	inhibition at 1 µM (Recombinant human FAP): 93.7%
–	145 nM	N#C[C@@H]1CCCN1C(=O)CN1CC[C@H](NC(=O)c2ccnc3ccccc23)C1 [Example 30, N—((S)-1-(2-((S)-2-cyanopyrrolidin-1-yl)-2-oxoethyl)pyrrolidin-3-yl)quinoline-4-carboxamide]	hDPP4 inhibition % at 1 μM (DPP4): No inhibition**
5.4%	164 nM	N#C[C@@H]1CCCN1C(=O)CN1CC[C@H](NC(=O)c2cnc3ccccc3c2)C1 [Example 31, N—((S)-1-(2-((S)-2-cyanopyrrolidin-1-yl)-2-oxoethyl)pyrrolidin-3-yl)quinoline-3-carboxamide]	–
2%	70.4 nM	N#C[C@@H]1CCCN1C(=O)CN1CC[C@H](NC(=O)c2cccc3ncccc23)C1 [Example 32, N—((S)-1-(2-((S)-2-cyanopyrrolidin-1-yl)-2-oxoethyl)pyrrolidin-3-yl)quinoline-5-carboxamide]	–
–	–	N#C[C@@H]1CCCN1C(=O)CN1CC[C@H](NC(=O)c2ccc3ccccc3n2)C1 [Example 33, N—((S)-1-(2-((S)-2-cyanopyrrolidin-1-yl)-2-oxoethyl)pyrrolidin-3-yl)quinoline-2-carboxamide]	hDPP4 inhibition % at 1 μM (DPP4): No inhibition**; inhibition at 1 µM (Recombinant human FAP): 66.1%
–	86.1 nM	CN(c1ccc2ccccc2n1)[C@@H]1CCN(CC(=O)N2CCC[C@H]2C#N)C1 [Example 137, (2S)-1-[2-[(3R)-3-[methyl(2-quinolyl)amino]pyrrolidin-1-yl]acetyl]pyrrolidine-2-carbonitrile]	–
–	34.1 nM	CN(c1ccc2cccnc2c1)[C@@H]1CCN(CC(=O)N2CCC[C@H]2C#N)C1 [Example 141, (2S)-1-[2-[(3R)-3-[methyl(7-quinolyl)amino]pyrrolidin-1-yl]acetyl]pyrrolidine-2-carbonitrile]	–
–	55.4 nM	CN(c1ccnc2ccccc12)[C@H]1CCN(CC(=O)N2CCC[C@H]2C#N)C1 [Example 143, (2S)-1-[2-[(3S)-3-[methyl(4-quinolyl)amino]pyrrolidin-1-yl]acetyl]pyrrolidine-2-carbonitrile]	–
–	14.7 nM	CN(c1cncc2ccccc12)[C@H]1CCN(CC(=O)N2CCC[C@H]2C#N)C1 [Example 147, (2S)-1-[2-[(3S)-3-[4-isoquinolyl(methyl)amino]pyrrolidin-1-yl]acetyl]pyrrolidine-2-carbonitrile]	–
–	–	N#C[C@@H]1CCCN1C(=O)CN1CC[C@@H](Nc2ccc3cccnc3c2)C1 [Example 163, (2S)-1-[2-[(3R)-3-(7-quinolylamino)pyrrolidin-1-yl]acetyl]pyrrolidine-2-carbonitrile]	IC50 (Recombinant human FAP; [2]): 29 nM
–	–	N#C[C@@H]1CCCN1C(=O)CN1CC[C@@H](Nc2cccc3cccnc23)C1 [Example 164, (2S)-1-[2-[(3R)-3-(8-quinolylamino)pyrrolidin-1-yl]acetyl]pyrrolidine-2-carbonitrile]	IC50 (Recombinant human FAP; [2]): 56.8 nM
–	–	N#C[C@@H]1C[C@H](F)CN1C(=O)CN1CC[C@@H](Nc2ccc3cccnc3c2)C1 [Example 168, (2S,4S)-4-fluoro-1-[2-[(3R)-3-(7-quinolylamino)pyrrolidin-1-yl]acetyl]pyrrolidine-2-carbonitrile]	IC50 (Recombinant human FAP; [2]): 11.5 nM
–	–	N#C[C@@H]1C[C@H](F)CN1C(=O)CN1CC[C@@H](Nc2cccc3cccnc23)C1 [Example 169, (2S,4S)-4-fluoro-1-[2-[(3R)-3-(8-quinolylamino)pyrrolidin-1-yl]acetyl]pyrrolidine-2-carbonitrile]	IC50 (Recombinant human FAP; [2]): 35.4 nM
